According to ChEMBL document CHEMBL1121828, “Quantitative structure-selectivity relationships. Comparison of the inhibition of Escherichia coli and bovine liver dihydrofolate reductase by 5-(substituted-benzyl)-2,4-diaminopyrimidines” (J Med Chem, 1981):

These compounds were tested against T1, Dihydrofolate reductase (Escherichia coli) (UniProt P0ABQ4).
T1 sequence (whole entry): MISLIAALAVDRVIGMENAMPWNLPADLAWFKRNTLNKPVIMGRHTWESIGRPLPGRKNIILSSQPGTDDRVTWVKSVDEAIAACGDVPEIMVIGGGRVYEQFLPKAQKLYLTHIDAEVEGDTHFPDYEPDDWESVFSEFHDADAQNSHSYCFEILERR
Description: Compound is evaluated for the inhibition of dihydrofolate reductase from Escherichia coli

| Log 1/Ki app | SMILES |
| --- | --- |
| 6.97 | CC(=O)Nc1ccc(Cc2cnc(N)nc2N)cc1[N+](=O)[O-] |
| 6.92 | CS(=O)(=O)Oc1cccc(Cc2cnc(N)nc2N)c1 |
| 6.57 | Nc1ncc(Cc2ccc(OC(F)(F)F)cc2)c(N)n1 |

These compounds were tested against T2, Dihydrofolate reductase (Bos taurus) (UniProt P00376).
T2 sequence (whole entry): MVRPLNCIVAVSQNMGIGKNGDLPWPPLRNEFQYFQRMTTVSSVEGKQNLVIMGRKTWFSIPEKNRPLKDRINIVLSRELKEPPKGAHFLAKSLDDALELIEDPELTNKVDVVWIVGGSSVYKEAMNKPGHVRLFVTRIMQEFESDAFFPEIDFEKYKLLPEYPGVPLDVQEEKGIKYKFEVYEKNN
Description: Inhibition of dihydrofolate reductase from bovine liver

| Log 1/Ki app | SMILES |
| --- | --- |
| 5.15 | COc1ccc(Cc2cnc(N)nc2N)cc1OC |
| 4.88 | COCCOc1c(OC)cc(Cc2cnc(N)nc2N)cc1OC |
| 5.2 | Nc1ncc(Cc2cccc(CO)c2)c(N)n1 |
| 6.15 | Nc1ncc(Cc2cccc(I)c2)c(N)n1 |
| 5.49 | COCc1cccc(Cc2cnc(N)nc2N)c1 |
| 5.86 | CCCCOCc1cccc(Cc2cnc(N)nc2N)c1 |
| 5.74 | CCCCOc1ccc(Cc2cnc(N)nc2N)cc1 |
| 4.88 | Nc1ncc(Cc2cccc(O)c2)c(N)n1 |

More lines, now with the values behind:

| SMILES | Log 1/Ki app |
| --- | --- |
| CC(=O)Nc1ccc(Cc2cnc(N)nc2N)cc1[N+](=O)[O-] | 5.16 |
| CS(=O)(=O)Oc1cccc(Cc2cnc(N)nc2N)c1 | 5.58 |
| Cc1ccc(Cc2cnc(N)nc2N)cc1 | 4.8 |
| Nc1ncc(Cc2cccc(C(F)(F)F)c2)c(N)n1 | 5.53 |
| Nc1ncc(Cc2ccc(OC(F)(F)F)cc2)c(N)n1 | 5.42 |
| Nc1ccc(Cc2cnc(N)nc2N)cc1 | 4.57 |
